Experiments:
[1] = test system: MAVS; assay: MAVS oligomerization in purified MEF mitochondria, with or without SLE patient-derived MAVS oligomers; parameters: species or system mouse
Experimental: MAVS antibody was covalently coupled to protein G magnetic beads (Life Technologies) using the bi-functional amine-reactive cross-linker disuccinimidyl suberate (DSS; Thermo Scientific). To avoid a sample contamination with proteins or protein complexes that nonspecifically bind to protein G, plasma samples were pre-incubated with protein G magnetic beads without the cross-linked MAVS antibody. SLE patient plasma were incubated for 6 hours, after which the magnetic beads were loaded onto a column in a magnetic field and extensively washed. After the beads were eluted, MAVS-oligomers were released from MAVS-antibody by way of increasing ionic strength buffer, lower pH and gel filtration. Functionally intact mitochondria from cultured cells were isolated as described earlier (S. Schmitt et al., (2013) Analytical biochemistry 443, 66-74). This method comprises a mechanical cell rupture, followed by a precipitation of mitochondria from cell lysates using magnetically labeled anti-TOM22 (Miltenyi Biotec) antibody. […] The reaction mixtures were centrifuged at 10,000×g for 10 min, and the precipitates then analyzed using SDD-AGE.

[2] = test system: MEFs; assay: IFN-I and IL-6 cytokine secretion by ELISA in MEF culture supernatants; format: cell-based, mouse
Experimental: ELISA was used to measure cytokine concentration in supernatant from cultured MEFs and BMDCs, and in sera of SLE patients and healthy control subjects. For assays, samples were centrifuged and IFN-β and IL-6 levels were measured in triplicate using murine or human ELISA kits according to the manufacturer's instructions. (PBL Biosciences). The fold change in IFN-I or IL-6 cells was calculated by directly comparing mock versus virus or chemical inducer of ROS.

Row | Compound | induction of MAVS oligomerization in purified mitochondria ([1]; GOx treatment, positive control (FIG. 6C, lane 2)) | IFN-I secretion induced by the substance ([2]; MAVS-WT MEFs, not observed in MAVS-KO (FIG. 2E, 2J)) | IL-6 secretion induced by the substance ([2]; MAVS-WT MEFs, not observed in MAVS-KO (FIG. 2F, 2K)) | MAVS oligomerization induced by SLE plasma MAVS oligomers in isolated mitochondria ([1]; mitochondria pretreated with MitoQ (FIG. 6C, lane 4)) | IFN-I secretion with MitoQ ([2]; MEF with or without MitoQ, GOx or SINV (FIG. 3D))
1 | glucose oxidase [GOx] | induced MAVS oligomerization | increased secretion | increased secretion | – | –
2 | COC1=C(OC)C(=O)C(CCCCCCCCCC[P+](c2ccccc2)(c2ccccc2)c2ccccc2)=C(C)C1=O.CS(=O)(=O)[O-] [MitoQ, [10-(4,5-Dimethoxy-2-methyl-3,6-dioxo-1,4-cyclohexadien-1-yl)decyl](triphenyl)phosphonium methanesulfonate] | – | – | – | significantly decreased | reduced IFN-I secretion

Source: US10967047B2, “Mitochondrial antiviral-signaling (MAVS) polypeptides and detection and use thereof” (University of Vermont and State Agricultural College, priority 2016, dated 2021)
